Where a name gives a salt, the structure may show the parent alone.
Experiment: Approximate kinetic solubility in pharmaceutical co-solvents
Assay type: physicochemical
Details: aqueous with cosolvent or surfactant or cyclodextrin, thermodynamic from solid, no-pH adjustment
Description: A summary of the approximate kinetic solubility of Compound I HCl Form I in organic solvents, simulated biological fluids, and common pharmaceutical co-solvents is provided in Tables 8-10, respectively.

[1] = 2% Captisol in aqueous solution
[2] = 5% Captisol in aqueous solution
[3] = 5% Pharmasolve in aqueous solution
[4] = 5% Poloxamer F68 in aqueous solution
[5] = 10% Captisol in aqueous solution
[6] = 10% HP-β-CD in aqueous solution
[7] = 10% Labrasol in aqueous solution
[8] = 10% Pharmasolve in aqueous solution
[9] = 10% Poloxamer F68 in aqueous solution
[10] = 20% HP-β-CD in aqueous solution
[11] = 20% Labrasol in aqueous solution
[12] = 30% HP-β-CD in aqueous solution
[13] = 35% Labrasol in aqueous solution
[14] = 40% Captisol in aqueous solution
[15] = 40% HP-β-CD in aqueous solution
[16] = 50% Labrasol in aqueous solution

CCS(=O)(=O)N1CCN(c2ccc(Nc3ncc(C(N)=O)c(NC4CC4)n3)cc2)CC1 [Compound I HCl Form I, 4-(cyclopropylamino)-2-(4-(4-(ethylsulfonyl)piperazin-1-yl)phenylamino)pyrimidine-5-carboxamide]
solubility kinetic at 2 h [1]: 2040 µg/mL | solubility kinetic at 24 h [1]: 2510 µg/mL | solubility kinetic at 7 days [1]: 2540 µg/mL | solubility kinetic at 2 h (3% HP-β-CD in aqueous solution): 990 µg/mL | solubility kinetic at 24 h (3% HP-β-CD in aqueous solution): 1120 µg/mL | solubility kinetic at 7 days (3% HP-β-CD in aqueous solution): 1020 µg/mL | solubility kinetic at 2 h (3% TPGS in aqueous solution): 1060 µg/mL | solubility kinetic at 24 h (3% TPGS in aqueous solution): 640 µg/mL | solubility kinetic at 7 days (3% TPGS in aqueous solution): 540 µg/mL | solubility kinetic at 2 h [2]: 3010 µg/mL | solubility kinetic at 24 h [2]: 3610 µg/mL | solubility kinetic at 7 days [2]: 3750 µg/mL | solubility kinetic at 2 h (5% HP-β-CD in aqueous solution): 1450 µg/mL | solubility kinetic at 24 h (5% HP-β-CD in aqueous solution): 1390 µg/mL | solubility kinetic at 7 days (5% HP-β-CD in aqueous solution): 1590 µg/mL | solubility kinetic at 2 h [3]: 430 µg/mL | solubility kinetic at 24 h [3]: 690 µg/mL | solubility kinetic at 2 h [4]: 230 µg/mL | solubility kinetic at 24 h [4]: 180 µg/mL | solubility kinetic at 2 h (5% TPGS in aqueous solution): 1610 µg/mL | solubility kinetic at 24 h (5% TPGS in aqueous solution): 1530 µg/mL | solubility kinetic at 7 days (5% TPGS in aqueous solution): 1320 µg/mL | solubility kinetic at 2 h [5]: 3040 µg/mL | solubility kinetic at 24 h [5]: 3410 µg/mL | solubility kinetic at 7 days [5]: 3670 µg/mL | solubility kinetic at 2 h [6]: 1880 µg/mL | solubility kinetic at 24 h [6]: 2030 µg/mL | solubility kinetic at 7 days [6]: 1930 µg/mL | solubility kinetic at 2 h [7]: 1150 µg/mL | solubility kinetic at 24 h [7]: 820 µg/mL | solubility kinetic at 7 days [7]: 700 µg/mL | solubility kinetic at 2 h [8]: 700 µg/mL | solubility kinetic at 24 h [8]: 570 µg/mL | solubility kinetic at 2 h [9]: 260 µg/mL | solubility kinetic at 24 h [9]: 210 µg/mL | solubility kinetic at 2 h (10% TPGS in aqueous solution): 1800 µg/mL | solubility kinetic at 24 h (10% TPGS in aqueous solution): 1930 µg/mL | solubility kinetic at 7 days (10% TPGS in aqueous solution): 1720 µg/mL | solubility kinetic at 2 h [10]: 2630 µg/mL | solubility kinetic at 24 h [10]: 2810 µg/mL | solubility kinetic at 7 days [10]: 2650 µg/mL | solubility kinetic at 2 h [11]: 1840 µg/mL | solubility kinetic at 24 h [11]: 1850 µg/mL | solubility kinetic at 7 days [11]: 1710 µg/mL | solubility kinetic at 2 h (20% PEG in aqueous solution): 270 µg/mL | solubility kinetic at 24 h (20% PEG in aqueous solution): 370 µg/mL | solubility kinetic at 2 h (20% TPGS in aqueous solution): 2450 µg/mL | solubility kinetic at 24 h (20% TPGS in aqueous solution): 2420 µg/mL | solubility kinetic at 7 days (20% TPGS in aqueous solution): 2620 µg/mL | solubility kinetic at 2 h [12]: 2980 µg/mL | solubility kinetic at 24 h [12]: 2940 µg/mL | solubility kinetic at 2 h (30% PEG in aqueous solution): 420 µg/mL | solubility kinetic at 24 h (30% PEG in aqueous solution): 450 µg/mL | solubility kinetic at 7 days (30% PEG in aqueous solution): 410 µg/mL | solubility kinetic at 2 h [13]: 1900 µg/mL | solubility kinetic at 24 h [13]: 2010 µg/mL | solubility kinetic at 7 days [13]: 1800 µg/mL | solubility kinetic at 2 h [14]: 4250 µg/mL | solubility kinetic at 24 h [14]: 4400 µg/mL | solubility kinetic at 7 days [14]: 4330 µg/mL | solubility kinetic at 2 h [15]: 3860 µg/mL | solubility kinetic at 24 h [15]: 3840 µg/mL | solubility kinetic at 7 days [15]: 4120 µg/mL | solubility kinetic at 2 h [16]: 2050 µg/mL | solubility kinetic at 24 h [16]: 2650 µg/mL | solubility kinetic at 7 days [16]: 2200 µg/mL | solubility kinetic at 2 h (50% PEG in aqueous solution): 2170 µg/mL | solubility kinetic at 24 h (50% PEG in aqueous solution): 870 µg/mL | solubility kinetic at 7 days (50% PEG in aqueous solution): 690 µg/mL

Source: US11713309B2, “Solid forms of Cerdulatinib” (Alexion Pharmaceuticals, Inc., priority 2018, dated 2023)
